Consider 31 compounds from patent publication US9546164B2 (GENENTECH, INC., priority 2013, dated 2017).

SMILES strings stand for the structures. Where a name gives a salt, the structure may show the parent alone.

In one experiment the target is hNav1.7 (Homo sapiens (Human), UniProt Q15858). As to the kind of experiment: Tritiated sulfonamide competitive binding to membranes from cells expressing hNav1.7 and the β1 subunit.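 Note: Filter-bound radioactivity counted by liquid scintillation, nonspecific binding defined with excess unlabelled ligand, IC50 fitted to percent inhibition of specific binding.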
hNav1.7, sequence (Q15858 other isoform, or with tags, fused parts or gaps): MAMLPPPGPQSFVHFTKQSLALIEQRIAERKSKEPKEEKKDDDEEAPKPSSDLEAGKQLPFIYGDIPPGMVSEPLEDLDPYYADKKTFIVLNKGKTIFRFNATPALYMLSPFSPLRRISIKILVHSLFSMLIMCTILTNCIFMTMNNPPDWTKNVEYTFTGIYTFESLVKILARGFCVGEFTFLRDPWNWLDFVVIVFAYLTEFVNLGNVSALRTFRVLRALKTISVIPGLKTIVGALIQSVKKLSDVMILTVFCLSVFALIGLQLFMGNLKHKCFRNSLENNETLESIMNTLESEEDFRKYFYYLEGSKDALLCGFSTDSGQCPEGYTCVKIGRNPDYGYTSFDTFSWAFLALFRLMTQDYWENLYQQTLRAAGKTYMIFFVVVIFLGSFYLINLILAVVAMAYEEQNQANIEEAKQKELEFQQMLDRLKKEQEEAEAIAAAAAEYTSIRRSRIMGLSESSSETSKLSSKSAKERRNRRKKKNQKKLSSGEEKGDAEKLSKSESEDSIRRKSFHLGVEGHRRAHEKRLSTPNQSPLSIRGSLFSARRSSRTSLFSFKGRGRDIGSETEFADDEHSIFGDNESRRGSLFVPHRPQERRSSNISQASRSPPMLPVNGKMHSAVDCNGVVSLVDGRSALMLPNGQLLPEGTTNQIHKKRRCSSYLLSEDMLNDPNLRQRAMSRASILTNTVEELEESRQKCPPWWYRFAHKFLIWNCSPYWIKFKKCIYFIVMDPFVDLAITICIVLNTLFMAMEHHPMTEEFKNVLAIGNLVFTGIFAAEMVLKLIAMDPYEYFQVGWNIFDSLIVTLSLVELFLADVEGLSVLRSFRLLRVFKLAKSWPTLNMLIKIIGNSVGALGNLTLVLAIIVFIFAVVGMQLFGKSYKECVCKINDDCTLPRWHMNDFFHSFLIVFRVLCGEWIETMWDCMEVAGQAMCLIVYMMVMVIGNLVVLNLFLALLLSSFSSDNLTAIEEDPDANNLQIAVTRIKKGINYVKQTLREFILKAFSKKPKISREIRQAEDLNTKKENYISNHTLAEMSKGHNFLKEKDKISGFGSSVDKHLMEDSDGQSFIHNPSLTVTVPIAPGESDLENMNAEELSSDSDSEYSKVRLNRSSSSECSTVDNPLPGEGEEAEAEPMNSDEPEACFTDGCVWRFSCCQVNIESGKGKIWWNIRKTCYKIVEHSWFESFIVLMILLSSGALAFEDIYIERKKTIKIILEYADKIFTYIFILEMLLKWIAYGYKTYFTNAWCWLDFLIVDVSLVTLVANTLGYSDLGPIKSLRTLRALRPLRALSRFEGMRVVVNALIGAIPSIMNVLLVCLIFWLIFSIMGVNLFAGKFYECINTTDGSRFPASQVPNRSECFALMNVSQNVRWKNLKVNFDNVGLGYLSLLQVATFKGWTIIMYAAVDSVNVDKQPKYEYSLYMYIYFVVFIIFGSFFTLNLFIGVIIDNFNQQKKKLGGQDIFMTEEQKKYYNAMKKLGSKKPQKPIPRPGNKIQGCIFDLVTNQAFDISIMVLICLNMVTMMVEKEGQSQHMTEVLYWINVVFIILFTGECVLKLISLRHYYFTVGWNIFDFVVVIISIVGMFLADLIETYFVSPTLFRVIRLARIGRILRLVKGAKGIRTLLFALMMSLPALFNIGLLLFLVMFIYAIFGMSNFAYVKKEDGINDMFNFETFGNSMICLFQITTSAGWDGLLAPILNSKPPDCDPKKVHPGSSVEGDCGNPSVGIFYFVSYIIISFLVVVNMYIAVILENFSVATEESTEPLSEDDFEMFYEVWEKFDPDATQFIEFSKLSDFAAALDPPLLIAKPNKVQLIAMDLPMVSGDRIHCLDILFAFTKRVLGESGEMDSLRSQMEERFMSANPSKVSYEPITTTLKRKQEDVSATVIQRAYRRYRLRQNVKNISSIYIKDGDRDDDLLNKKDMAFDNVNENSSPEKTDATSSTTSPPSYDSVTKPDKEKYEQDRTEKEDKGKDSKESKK
hNav1.7, sequence (Q07699 19-218 partner): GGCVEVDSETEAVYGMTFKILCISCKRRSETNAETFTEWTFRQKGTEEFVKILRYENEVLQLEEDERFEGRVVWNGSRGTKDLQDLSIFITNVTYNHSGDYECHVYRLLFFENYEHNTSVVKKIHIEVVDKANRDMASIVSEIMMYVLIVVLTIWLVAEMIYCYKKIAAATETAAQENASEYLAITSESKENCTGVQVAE
Conditions: not given
With `C[C@@H]1CN(Cc2cc(F)c(C(=O)NS(=O)(=O)C3CC3)cc2C2CC2)CCN1[C@@H](C)c1cc(Cl)cc(Cl)c1` [Example 572, 5-cyclopropyl-N-(cyclopropylsulfonyl)-4-(((R)-4-((S)-1-(3,5-dichlorophenyl)ethyl)-3-methylpiperazin-1-yl)methyl)-2-fluorobenzamide], the IC50 was determined as 21.6 nM.

For the compound `O=C(NS(=O)(=O)N1CCC1)c1cc(C2CC2)c(O[C@@H]2CCCN(Cc3cccc(Cl)c3)C2)cc1F` [Example 28, (R)—N-(azetidin-1-ylsulfonyl)-4-((1-(3-chlorobenzyl)piperidin-3-yl)oxy)-5-cyclopropyl-2-fluorobenzamide], the IC50 worked out at 7.4 nM.

`CS(=O)(=O)NC(=O)c1cc(C2CC2)c(CN2CCC(Oc3ccc(C(F)(F)F)cc3)CC2)cc1F` [Example 499, 5-cyclopropyl-2-fluoro-N-(methylsulfonyl)-4-((4-(4-(trifluoromethyl)phenoxy)piperidin-1-yl)methyl)benzamide] registered an IC50 of 13.6 nM.

`CC(C)(c1cccc(Cl)c1)N1CCC[C@@H](Oc2cc(F)c(C(=O)NS(=O)(=O)C3CC3)cc2C2CC2)C1` [Example 530, (R)-4-((1-(2-(3-chlorophenyl)propan-2-yl)piperidin-3-yl)oxy)-5-cyclopropyl-N-(cyclopropylsulfonyl)-2-fluorobenzamide, trifluoroacetic acid salt] showed an IC50 of 2.3 nM.

For the compound `CS(=O)(=O)NC(=O)c1cc(C2CC2)c(O[C@@H]2CCCN(Cc3ccnnc3)C2)cc1F` [Example 13, (R)-5-cyclopropyl-2-fluoro-N-(methylsulfonyl)-4-((1-(pyridazin-4-ylmethyl)piperidin-3-yl)oxy)benzamide], the IC50 is 1490 nM.

The same experiment, now with this note: read-out: Ligand Binding Assay; 100 pM [3H]compound, membranes with hNav1.7 and β1 subunit, 18 h, room temperature.
`CS(=O)(=O)NC(=O)c1cc(C2CC2)c(OCC2CCN(CCC(F)(F)F)CC2)cc1F` [Example 117, 5-Cyclopropyl-2-fluoro-N-(methylsulfonyl)-4-((1-(3,3,3-trifluoropropyl)piperidin-4-yl)methoxy)benzamide]: the IC50 amounted to 411 nM.

On to `CS(=O)(=O)NC(=O)c1cc(C2CC2)c(O[C@@H]2CCCN(Cc3ccc(S(C)(=O)=O)cc3Cl)C2)cc1F` [Example 441, (R)-4-((1-(2-chloro-4-(methylsulfonyl)benzyl)piperidin-3-yl)oxy)-5-cyclopropyl-2-fluoro-N-(methylsulfonyl)benzamide, trifluoroacetic acid salt], for which the IC50 was found to be 138 nM.

As to `CC(c1cc(Cl)cc(Cl)c1F)N1CCC(COc2cc(F)c(C(=O)NS(C)(=O)=O)cc2C2CC2)CC1` (stereo in doubt) [Example 236, (R)-5-cyclopropyl-4-((1-(1-(3,5-dichloro-2-fluorophenyl)ethyl)piperidin-4-yl)methoxy)-2-fluoro-N-(methylsulfonyl)benzamide], the IC50 was found to be 1.6 nM.

As to `CS(=O)(=O)NC(=O)c1cc(Cl)c(OCC2CN(C(c3ccccc3)c3ccccc3)C2)cc1F` [Example 59, 4-((1-benzhydrylazetidin-3-yl)methoxy)-5-chloro-2-fluoro-N-(methylsulfonyl)benzamide], the IC50 stood at 76 nM.

Turning to `O=C(NS(=O)(=O)N1CCC1)c1cc(Cl)c(OCC2CCN(Cc3cc(Cl)cc(OC(F)(F)F)c3)CC2)cc1F` [Example 408, N-(azetidin-1-ylfulfonyl)-5-chloro-4-((1-(3-chloro-5-(trifluoromethoxy)benzyl)piperidin-4-yl)methoxy)-2-fluorobenzamide, trifluoroacetic acid suit], the IC50 amounted to 22.7 nM.

For `CCS(=O)(=O)NC(=O)c1cc(C2CC2)c(OCC2CCN(Cc3ccc(Cl)cc3Cl)CC2)cc1F` [Example 213, 5-cyclopropyl-4-((1-(2,4-dichlorobenzyl)piperidin-4-yl)methoxy)-N-(ethylsulfonyl)-2-fluorobenzamide], the IC50 was found to be 2.5 nM.

On to `CS(=O)(=O)NC(=O)c1cc(C2CC2)c(OC[C@H]2CCCN(Cc3cc(Cl)cc(Cl)c3)C2)cc1F` [Example 336, (S)-5-cyclopropyl-4-((1-(3,5-dichlorobenzyl)piperidin-3-yl)methoxy)-2-fluoro-N-(methylsulfonyl)benzamide], for which the IC50 was 4.9 nM.

Turning to `O=C(NS(=O)(=O)C1CC1)c1cc(C2CC2)c(CN2CCC(Oc3ncc(Br)cc3Cl)CC2)cc1F` [Example 473, 4-((4-((5-bromo-3-chloropyridin-2-yl)oxy)piperidin-1-yl)methyl)-5-cyclopropyl-N-(cyclopropylsulfonyl)-2-fluorobenzamide, trifluoroacetic acid salt], the IC50 came to 9.5 nM.

Take `CCS(=O)(=O)NC(=O)c1cc(C2CC2)c(OCCC2CCN(Cc3cc(Cl)cc(Cl)c3)CC2)cc1F` [Example 303, 5-cyclopropyl-4-(2-(1-(3,5-dichlorobenzyl)piperidin-4-yl)ethoxy)-N-(ethylsulfonyl)-2-fluorobenzamide, trifluoroacetic acid salt]: the IC50 worked out at 6.5 nM.

Consider `CC1(COc2cc(F)c(C(=O)NS(=O)(=O)C3CC3)cc2C2CC2)CN(c2ncc(Cl)cc2F)C1` [Example 483, 4-((1-(5-chloro-3-fluoropyridin-2-yl)-3-methylazetidin-3-yl)methoxy)-5-cyclopropyl-N-(cyclopropylsulfonyl)-2-fluorobenzamide], for which the IC50 stood at 5.2 nM.

Regarding `CC1(COc2cc(F)c(C(=O)NS(C)(=O)=O)cc2C2CC2)CN(Cc2cc(Cl)cc(Cl)c2)C1` [Example 77], the IC50 stood at 6.4 nM.

For `CS(=O)(=O)NC(=O)c1cc(C2CC2)c(OCC2CCN(S(=O)(=O)c3ccc(Br)c(Cl)c3)CC2)cc1F` [Example 390, 4-((1-((4-bromo-3-chlorophenyl)sulfonyl)piperidin-4-yl)methoxy)-5-cyclopropyl-2-fluoro-N-(methylsulfonyl)benzamide], the IC50 was determined as 18.5 nM.

In the case of `C[C@@H](c1ccc(F)cc1)N1CCC[C@@H](Oc2cc(F)c(C(=O)NS(C)(=O)=O)cc2C2CC2)C1` (single isomer, unassigned) [Example 315], the IC50 was determined as 19.1 nM.

As to `CS(=O)(=O)NC(=O)c1cc(C2CC2)c(OCC2CCN(CC(F)(F)F)CC2)cc1F` [Example 116, 5-Cyclopropyl-2-fluoro-N-(methylsulfonyl)-4-((1-(2,2,2-trifluoroethyl)-piperidin-4-yl)methoxy)benzamide], the IC50 turned out to be 77.5 nM.

In the case of `CS(=O)(=O)NC(=O)c1cc(C2CC2)c(OC[C@@H]2CCCN(Cc3cc(Cl)cc(Cl)c3)C2)cc1F` [Example 334, (R)-5-cyclopropyl-4-((1-(3,5-dichlorobenzyl)piperidin-3-yl)methoxy)-2-fluoro-N-(methylsulfonyl)benzamide], the IC50 turned out to be 7.1 nM.

Take `CCS(=O)(=O)NC(=O)c1cc(C2CC2)c(OCC2CCN([C@@H](c3cc(Cl)cc(Cl)c3)C(F)F)CC2)cc1F` [Example 226, (S)-5-cyclopropyl-4-((1-(1-(3,5-dichlorophenyl)-2,2-difluoroethyl)piperidin-4-yl)methoxy)-N-(ethylsulfonyl)-2-fluorobenzamide]: the IC50 was determined as 12 nM.

For the compound `CCS(=O)(=O)NC(=O)c1cc(C2CC2)c(OCC2(C)CN(c3ncc(Cl)cc3F)C2)cc1F` [Example 484, 4-((1-(5-chloro-3-fluoropyridin-2-yl)-3-methylazetidin-3-yl)methoxy)-5-cyclopropyl-N-(ethylsulfonyl)-2-fluorobenzamide], the IC50 worked out at 9.2 nM.

Regarding `C[C@H](c1cc(Cl)cc(C(F)(F)F)c1)N1CCC(C)(COc2cc(F)c(C(=O)NS(C)(=O)=O)cc2C2CC2)CC1` (single isomer, unassigned) [Example 278], the IC50 turned out to be 3.3 nM.

For `CS(=O)(=O)NC(=O)c1cc(C2CC2)c(OCC2CCN(C(=O)c3cc(Cl)cc(Cl)c3)CC2)cc1F` [Example 253, 5-Cyclopropyl-4-((1-(3,5-dichlorobenzoyl)piperidin-4-yl)methoxy)-2-fluoro-N-(methylsulfonyl)benzamide], the IC50 stood at 20 nM.

In the case of `CS(=O)(=O)NC(=O)c1cc(C2CC2)c(OC[C@H]2CCCN(Cc3ccc(F)cc3Cl)C2)cc1F` [Example 335, (S)-4-((1-(2-chloro-4-fluorobenzyl)piperidin-3-yl)methoxy)-5-cyclopropyl-2-fluoro-N-(methylsulfonyl)benzamide], the IC50 is 14.3 nM.

On to `C[C@@H](c1cc(Cl)cc(Cl)c1)N1CCC(C#N)(COc2cc(F)c(C(=O)NS(C)(=O)=O)cc2C2CC2)CC1` [Example 598], for which the IC50 stood at 258 nM.

Regarding `CS(=O)(=O)NC(=O)c1cc(C2CC2)c(OCC2CN([C@@H](c3ccccc3)c3ccccc3Cl)C2)cc1F` [Example 150, (S)-4-((1-((2-Chlorophenyl)(phenyl)methyl)azetidin-3-yl)methoxy)-5-cyclopropyl-2-fluoro-N-(methylsulfonyl)benzamide], the IC50 worked out at 100 nM.

Regarding `CS(=O)(=O)NC(=O)c1cc(C2CC2)c(OCC2CCN([C@H](CO)c3cc(Cl)cc(Cl)c3)CC2)cc1F` [Example 267, (S)-5-cyclopropyl-4-((1-(1-(3,5-dichlorophenyl)-2-hydroxyethyl)piperidin-4-yl)methoxy)-2-fluoro-N-(methylsulfonyl)benzamide], the IC50 was 47 nM.

`O=C(NS(=O)(=O)N1CCC1)c1cc(C2CC2)c(OCC2CCN(Cc3ccc(C4CC4)cc3Cl)CC2)cc1F` [Example 417, N-(azetidin-1-ylsulfonyl)-4-((1-(2-chloro-4-cyclopropylbenzyl)piperidin-4-yl)methoxy)-5-cyclopropyl-2-fluorobenzamide, trifluoroacetic acid salt]: the IC50 turned out to be 5.7 nM.

`Cc1ccc(CN2CCC[C@@H](Oc3cc(F)c(C(=O)NS(C)(=O)=O)cc3C3CC3)C2)c(Cl)c1` [Example 424, (R)-4-((1-(2-chloro-4-methylbenzyl)piperidin-3-yl)oxy)-5-cyclopropyl-2-fluoro-N-(methylsulfonyl)benzamide, trifluoroacetic acid salt]: the IC50 amounted to 2.5 nM.

On to `CCS(=O)(=O)NC(=O)c1cc(C2CC2)c(OCC2CCN(C3(c4cc(Cl)cc(Cl)c4)COC3)CC2)cc1F` [Example 177, 5-Cyclopropyl-4-((1-(3-(3,5-dichlorophenyl)oxetan-3-yl)piperidin-4-yl)methoxy)-N-(ethylsulfonyl)-2-fluorobenzamide], for which the IC50 was determined as 8.3 nM.
